Laboratory results taken from patent US12150998B2, “Bicyclic peptide ligands specific for P-selectin” (BicycleTx Limited, priority 2021, dated 2024).
Like-named read-outs stand apart in the source and are kept apart here. Starred links: 1 amine or outer side, 2 acyl side, 3 side chain; linkers in the order of their positions; H or OH if unused. Positions of bridges follow the written chain, without caps; N, C: chain ends. Residues, ends and D or L forms follow the SMILES beside them. Chains are numbered I, II in the order given. No end group written: not given here. X3 = O=C(CCOCCN(CCOCCC(=O)NCCOCCOCCOCCOCCOCCOCCOCCOCCOCCOCCOCCOCCOCCOCCOCCOCCOCCOCCOCCOCCOCCOCCOCCn1cc(CCC(=O)[*:2])nn1)CCOCCC(=O)NCCOCCOCCOCCOCCOCCOCCOCCOCCOCCOCCOCCOCCOCCOCCOCCOCCOCCOCCOCCOCCOCCOCCOCCn1cc(CCC(=O)[*:3])nn1)NCCOCCOCCOCCOCCOCCOCCOCCOCCOCCOCCOCCOCCOCCOCCOCCOCCOCCOCCOCCOCCOCCOCCOCCn1cc(CCC(=O)[*:1])nn1; X2 = O=C(CCCC(=O)NCCOCCOCCOCCOCCOCCOCCOCCOCCOCCOCCOCCOCCOCCOCCOCCOCCOCCOCCOCCOCCOCCOCCOCCn1cc(CCC(=O)[*:2])nn1)NCCOCCOCCOCCOCCOCCOCCOCCOCCOCCOCCOCCOCCOCCOCCOCCOCCOCCOCCOCCOCCOCCOCCOCCn1cc(CCC(=O)[*:1])nn1; TATA = O=C(CC[*:1])N1CN(C(=O)CC[*:2])CN(C(=O)CC[*:3])C1; X1 = O=C(C[*:1])N1CCN(C(=O)C[*:2])CCN(C(=O)C[*:3])CC1

Assays:
[1] = target: T1, P-Selectin:PSGL1 interaction (Homo sapiens, UniProt P16109); assay: Receptor ligand inhibition assay (P-Selectin binding to HL-60 cells); type: cell-based; details: geomean of n=3
T1 construct: host or cells: HL-60 cells (ATCC, CCL-240) supply the PSGL-1 partner endogenously
T1 sequence (P16109 42-771 limits assumed): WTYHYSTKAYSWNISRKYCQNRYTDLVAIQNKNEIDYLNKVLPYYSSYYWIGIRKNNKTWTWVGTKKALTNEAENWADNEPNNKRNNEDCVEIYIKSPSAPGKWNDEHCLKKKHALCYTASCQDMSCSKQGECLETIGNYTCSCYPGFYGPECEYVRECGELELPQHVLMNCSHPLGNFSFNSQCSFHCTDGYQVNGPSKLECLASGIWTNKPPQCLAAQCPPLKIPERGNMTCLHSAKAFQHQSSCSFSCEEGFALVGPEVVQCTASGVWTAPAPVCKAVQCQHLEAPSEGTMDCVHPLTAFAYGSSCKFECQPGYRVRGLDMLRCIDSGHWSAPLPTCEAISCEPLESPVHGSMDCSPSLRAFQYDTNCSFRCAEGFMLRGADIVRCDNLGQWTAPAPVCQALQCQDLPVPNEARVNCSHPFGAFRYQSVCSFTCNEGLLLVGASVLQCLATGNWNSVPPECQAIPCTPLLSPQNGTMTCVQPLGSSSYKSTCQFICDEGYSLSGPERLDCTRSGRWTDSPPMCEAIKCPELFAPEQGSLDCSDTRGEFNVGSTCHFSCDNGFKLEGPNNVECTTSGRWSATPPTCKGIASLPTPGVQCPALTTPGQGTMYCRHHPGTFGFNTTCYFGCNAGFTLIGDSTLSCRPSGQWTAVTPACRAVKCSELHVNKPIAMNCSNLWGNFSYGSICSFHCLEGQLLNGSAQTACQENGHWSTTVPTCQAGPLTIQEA
Procedure: Bicycle test samples, SelG1 (Crizanlizumab) were serially diluted maintaining 0.5% DMSO in assay buffer (25 mM HEPES, 121 mM NaCl, 5.4 mM KCl, 0.8 mM MgCl2, 1.8 mM CaCl2), 6 mM […], 5.5 mM glucose, 1% BSA, pH7.4) and transferred to 384 well clear bottom plates (Corning, 3712) with a final volume of 6 μL. […], of P-Selectin in imaging buffer (25 mM HEPES, 121 mM NaCl, 5.4 mM KCl, 0.8 mM MgCl2, 1.8 mM CaCl2), 6 mM […], 5.5 mM glucose, pH7.4) was added to give a 5 nM final concentration and incubated at room temperature for 15 minutes. HL-60 cells (ATCC, CCL-240) mixed with 1 μg/mL far red labelled wheat germ agglutinin (WGA, ThermoFisher W21404) and 1 μg/mL AlexaFluor 488-streptavidin (Invitrogen S11223) were added to the plate and incubated for 2 hours at room temperature in the absence of light. Staining and antibody binding were quantified by simultaneously scanning the microplates with 488 nm and 640 nm lasers on a mirrorball microplate cytometer, AF488 on FL2 triggering on AF647-WGA on FL4. Data was analysed in Dotmatics, using a four parameter logistic fit to generate IC50 values and % response. Percent inhibition was calculated using 100−% response at top concentration.

human P-Selectin protein = target: T2, human P-Selectin protein (Homo sapiens, UniProt P16109); assay: SPR binding assay (Biacore); details: recombinant biotinylated human P-Selectin, 25° C.
T2 sequence (P16109 42-830): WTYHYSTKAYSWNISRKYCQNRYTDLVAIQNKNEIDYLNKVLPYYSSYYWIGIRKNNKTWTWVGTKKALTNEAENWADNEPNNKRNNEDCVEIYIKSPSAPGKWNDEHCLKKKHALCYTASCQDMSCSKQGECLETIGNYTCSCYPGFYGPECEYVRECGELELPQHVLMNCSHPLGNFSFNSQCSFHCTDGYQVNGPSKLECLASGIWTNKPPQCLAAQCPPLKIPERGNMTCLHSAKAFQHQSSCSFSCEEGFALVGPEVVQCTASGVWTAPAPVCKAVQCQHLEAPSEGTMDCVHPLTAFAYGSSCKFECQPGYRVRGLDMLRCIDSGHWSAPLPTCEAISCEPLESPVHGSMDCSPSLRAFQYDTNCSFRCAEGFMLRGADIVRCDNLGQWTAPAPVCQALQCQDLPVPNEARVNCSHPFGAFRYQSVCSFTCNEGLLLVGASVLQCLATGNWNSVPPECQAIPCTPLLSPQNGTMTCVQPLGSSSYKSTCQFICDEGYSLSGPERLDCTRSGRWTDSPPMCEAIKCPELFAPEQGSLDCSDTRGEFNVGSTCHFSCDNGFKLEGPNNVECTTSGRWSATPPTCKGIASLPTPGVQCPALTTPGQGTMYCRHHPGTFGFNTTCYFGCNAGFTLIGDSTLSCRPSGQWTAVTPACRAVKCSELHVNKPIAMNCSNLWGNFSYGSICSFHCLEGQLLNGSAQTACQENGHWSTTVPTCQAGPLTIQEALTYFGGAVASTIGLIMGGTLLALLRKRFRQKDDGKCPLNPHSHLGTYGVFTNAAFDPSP
Procedure: Biacore experiments were performed to determine ka (M−1s−1), kd (s−1), KD (nM) values of monomeric peptides binding to human Selectin proteins. Recombinant biotinylated human P-Selectin protein was used. For analysis of binding, either a Biacore 3000 or 5200 instrument was used with a CMS sensor chip (GE Healthcare). For sensor chip surface preparation, streptavidin was immobilized on the chip using standard amine-coupling chemistry at 25° C. with HBS-N (10 mM HEPES, 0.15 M NaCl, pH 7.4) as the running buffer. The carboxymethyl dextran surface was activated with a 12 min injection of a 1:1 ratio of 0.4 M 1-ethyl-3-(3-dim ethyl aminopropyl) carbodiimide hydrochloride (EDC)/0.1 M N-hydroxy succinimide (NHS) at a flow rate of 10 μl/min. For capture of streptavidin, protein was diluted to 0.2 mg/ml in 10 mM sodium acetate (pH 4.5) and captured by injecting 70 μl onto the activated chip surface. Residual activated groups were blocked with a 7 min injection of 1 M ethanolamine (pH 8.5). Biotinylated protein stock was diluted 1:100 in HBS-N and captured on one flow cell at 5 μl/min to a level of 1000-1500 RU. Buffer was changed to PBS/0.05% Tween 20 and a dilution series of the peptides was prepared in this buffer with a final DMSO concentration of 0.5%. The top concentration of the analyte varied from 200 nM to 50 μM; depending on predicted affinity of the interaction. In all cases a titration was performed with either seven 2-fold dilutions or five 3-fold dilutions. The SPR analysis was run at 25° C. with a flow rate of 50-80 μl/min with 60 seconds association and a suitable disassociation period (100-900 seconds). Data were corrected for DMSO excluded volume effects. All data were double-referenced for blank injections and reference surface using standard processing procedures and data processing and kinetic fitting were performed using Scrubber software, version 2.0c (BioLogic Software). Data were fitted using mass transport model allowing for mass transport effects where appropriate.

I: ACDADWCDVPSLPCAK-NH2 / II: ACDADWCDVPSLPCAK-NH2 / III: ACDADWCDVPSLPCAK-NH2 (linker I:2-I:7-I:14, II:2-II:7-II:14, III:2-III:7-III:14 via X1; linker I:16-II:16-III:16 via X3) [BCY12259]
IC50 ([1]; 5 nM P-Selectin, HL-60 cells, read-out: IC50): 14.4 nM | Inhibition at top concentration ([1]; 100−% response at top concentration): 61% | Kd (human P-Selectin protein; Affinity KD determined by SPR): 0.233 nM

CSCC[C@@H]1NC(=O)[C@H](Cc2ccc(O)cc2)NC(=O)[C@@H](NC(=O)[C@H](C)NC(C)=O)CSCCC(=O)N2CN3CN(C2)C(=O)CCSC[C@H](NC(=O)[C@H](Cc2c[nH]c4ccccc24)NC(=O)[C@H](CCC(=O)O)NC1=O)C(=O)N[C@@H](CC(=O)O)C(=O)N[C@@H](C(C)C)C(=O)N[C@@H]([C@@H](C)O)C(=O)N[C@@H](CC(=O)O)C(=O)N[C@@H](Cc1ccc(O)cc1)C(=O)NCC(=O)N[C@H](C(=O)N[C@@H](CCCCNC(=O)CCc1cn(CCOCCOCCOCCOCCOCCOCCOCCOCCOCCOCCOCCOCCOCCOCCOCCOCCOCCOCCOCCOCCOCCOCCOCCNC(=O)CCCC(=O)NCCOCCOCCOCCOCCOCCOCCOCCOCCOCCOCCOCCOCCOCCOCCOCCOCCOCCOCCOCCOCCOCCOCCOCCn2cc(CCC(=O)NCCCC[C@H](NC(=O)[C@@H]4CSCCC(=O)N5CN6CN(C5)C(=O)CCSC[C@H](NC(=O)[C@H](Cc5c[nH]c7ccccc57)NC(=O)[C@H](CCC(=O)O)NC(=O)[C@H](CCSC)NC(=O)[C@H](Cc5ccc(O)cc5)NC(=O)[C@@H](NC(=O)[C@H](C)NC(C)=O)CSCCC6=O)C(=O)N[C@@H](CC(=O)O)C(=O)N[C@@H](C(C)C)C(=O)N[C@@H]([C@@H](C)O)C(=O)N[C@@H](CC(=O)O)C(=O)N[C@@H](Cc5ccc(O)cc5)C(=O)NCC(=O)N4)C(N)=O)nn2)nn1)C(N)=O)CSCCC3=O [BCY5457] (I: Ac-ACYMEWCDVTDYGCK-NH2 / II: Ac-ACYMEWCDVTDYGCK-NH2; linker I:2-I:7-I:14, II:2-II:7-II:14 via TATA; linker I:15-II:15 via X2)
Kd (human P-Selectin protein; Affinity KD determined by SPR): 969 nM

CSCC[C@@H]1NC(=O)[C@H](Cc2ccc(O)cc2)NC(=O)[C@@H](NC(=O)[C@H](C)NC(=O)CCc2cn(CCOCCOCCOCCOCCOCCOCCOCCOCCOCCOCCNC(=O)CCCC(=O)NCCOCCOCCOCCOCCOCCOCCOCCOCCOCCOCCn3cc(CCC(=O)N[C@@H](C)C(=O)N[C@H]4CSCCC(=O)N5CN6CN(C5)C(=O)CCSC[C@H](NC(=O)[C@H](Cc5c[nH]c7ccccc57)NC(=O)[C@H](CCC(=O)O)NC(=O)[C@H](CCSC)NC(=O)[C@H](Cc5ccc(O)cc5)NC4=O)C(=O)N[C@@H](CC(=O)O)C(=O)N[C@@H](C(C)C)C(=O)N[C@@H]([C@@H](C)O)C(=O)N[C@@H](CC(=O)O)C(=O)N[C@@H](Cc4ccc(O)cc4)C(=O)NCC(=O)N[C@H](C(=O)N[C@@H](C)C(N)=O)CSCCC6=O)nn3)nn2)CSCCC(=O)N2CN3CN(C2)C(=O)CCSC[C@H](NC(=O)[C@H](Cc2c[nH]c4ccccc24)NC(=O)[C@H](CCC(=O)O)NC1=O)C(=O)N[C@@H](CC(=O)O)C(=O)N[C@@H](C(C)C)C(=O)N[C@@H]([C@@H](C)O)C(=O)N[C@@H](CC(=O)O)C(=O)N[C@@H](Cc1ccc(O)cc1)C(=O)NCC(=O)N[C@H](C(=O)N[C@@H](C)C(N)=O)CSCCC3=O [BCY5454]
Kd (human P-Selectin protein; read-out: Affinity KD determined by SPR): 400 nM
